Measurements from ChEMBL document CHEMBL4507327 (2021).

Key:
[1] = biological target: T1, 5-hydroxytryptamine receptor 3A (Homo sapiens) (UniProt P46098); details: Compound concentration 10.0 uM
T1 sequence (whole entry): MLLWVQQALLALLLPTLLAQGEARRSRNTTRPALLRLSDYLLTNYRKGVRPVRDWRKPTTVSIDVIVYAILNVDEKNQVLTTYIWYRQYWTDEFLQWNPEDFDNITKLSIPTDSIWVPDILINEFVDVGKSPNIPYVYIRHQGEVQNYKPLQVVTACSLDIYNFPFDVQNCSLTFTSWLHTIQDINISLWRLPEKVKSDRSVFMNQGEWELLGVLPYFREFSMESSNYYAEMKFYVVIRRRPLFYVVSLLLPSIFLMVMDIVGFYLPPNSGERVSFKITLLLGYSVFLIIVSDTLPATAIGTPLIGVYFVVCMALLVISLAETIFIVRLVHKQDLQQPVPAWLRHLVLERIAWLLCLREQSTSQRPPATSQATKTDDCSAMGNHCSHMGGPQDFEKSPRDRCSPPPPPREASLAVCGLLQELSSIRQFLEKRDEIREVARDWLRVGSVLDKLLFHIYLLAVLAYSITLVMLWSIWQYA

[2] = biological target: Delta-type opioid receptor (Homo sapiens) (UniProt P41143); details: Compound concentration 10.0 uM
[3] = biological target: T2, GABA-A receptor; anion channel (Rattus norvegicus) (UniProt O09028+P15431+P18506+P18508+P19969+P20236+P23574+P23576+P28471+P28473+P30191+P62813+P63079+P63138+Q91ZM7+Q9ES14); details: Compound concentration 10.0 uM
Rattus norvegicus = species on record: Rattus norvegicus; experiment: Inhibition of Imidazoline I2, Central at 10 µM in the Eurofins-Panlabs radioligand binding assay (Eurofins_assay_241000); design: ligand concentration 2 nM; details: Compound concentration 10.0 uM
[4] = biological target: 5-hydroxytryptamine receptor 1E (Homo sapiens) (UniProt P28566); details: Compound concentration 10.0 uM
[5] = biological target: Mu-type opioid receptor (Homo sapiens) (UniProt P35372); details: Compound concentration 10.0 uM
[6] = biological target: T3, Alpha-1A adrenergic receptor (Homo sapiens) (UniProt P35348); details: Compound concentration 10.0 uM
T3 sequence (whole entry): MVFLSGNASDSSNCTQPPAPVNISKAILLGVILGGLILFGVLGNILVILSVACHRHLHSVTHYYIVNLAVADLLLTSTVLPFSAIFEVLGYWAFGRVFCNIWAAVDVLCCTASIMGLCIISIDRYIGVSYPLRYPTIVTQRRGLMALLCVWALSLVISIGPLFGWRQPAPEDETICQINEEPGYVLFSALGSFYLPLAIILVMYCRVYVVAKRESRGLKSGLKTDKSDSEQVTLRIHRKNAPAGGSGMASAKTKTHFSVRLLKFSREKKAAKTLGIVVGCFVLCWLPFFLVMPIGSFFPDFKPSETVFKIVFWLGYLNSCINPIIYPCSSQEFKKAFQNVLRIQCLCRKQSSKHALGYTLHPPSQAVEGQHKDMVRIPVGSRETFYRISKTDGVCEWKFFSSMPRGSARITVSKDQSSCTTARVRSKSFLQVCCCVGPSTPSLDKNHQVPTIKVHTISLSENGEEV

[7] = biological target: 5-hydroxytryptamine receptor 7 (Homo sapiens) (UniProt P34969); details: Compound concentration 10.0 uM
[8] = biological target: Kappa-type opioid receptor (Homo sapiens) (UniProt P41145); details: Compound concentration 10.0 uM
[9] = biological target: Acetylcholine receptor subunit alpha (Homo sapiens) (UniProt P02708); experiment: Inhibition of Nicotinic Acetylcholine D1, Bungarotoxin at 10 µM in the Eurofins-Panlabs radioligand binding assay (Eurofins_assay_258700); details: Compound concentration 10.0 uM
[10] = biological target: Serine/threonine-protein kinase LATS1 (Homo sapiens, UniProt O95835); experiment: LATS1(LAT1LGRJ) Takeda global kinase panel
[11] = biological target: T2, GABA-A receptor; anion channel (Rattus norvegicus); details: Compound concentration 10.0 uM; remark: listed apart in the source
[12] = biological target: Alpha-2A adrenergic receptor (Homo sapiens) (UniProt P08913); details: Compound concentration 10.0 uM
Myosin-IIIa = Myosin-IIIa (Homo sapiens, UniProt Q8NEV4); experiment: MYO3A(MY3ALGRI) Takeda global kinase panel
[13] = biological target: 5'-AMP-activated protein kinase catalytic subunit alpha-2 (Homo sapiens, UniProt P54646); experiment: AMPKalpha2(PRA2LGY1) Takeda global kinase panel
[14] = biological target: Proto-oncogene tyrosine-protein kinase receptor Ret (Homo sapiens, UniProt P07949); experiment: Ret(RET1LGF1) Takeda global kinase panel
[15] = biological target: cAMP-dependent protein kinase catalytic subunit beta (Homo sapiens, UniProt P22694); experiment: PKAbeta(PRCBLGF1) Takeda global kinase panel
Focal adhesion kinase 1 = Focal adhesion kinase 1 (Homo sapiens, UniProt Q05397); experiment: FAK(PTK2LGF1) Takeda global kinase panel
[16] = biological target: cAMP-dependent protein kinase catalytic subunit alpha (Homo sapiens, UniProt P17612); experiment: PKAalpha(PRCALGH1) Takeda global kinase panel
[17] = biological target: Serine/threonine-protein kinase 16 (Homo sapiens, UniProt O75716); experiment: MPSK1(ST16LGF1) Takeda global kinase panel
[18] = biological target: Serine/threonine-protein kinase 38 (Homo sapiens, UniProt Q15208); experiment: NDR1(ST38LGF1) Takeda global kinase panel
[19] = biological target: Testis-specific serine/threonine-protein kinase 3 (Homo sapiens, UniProt Q96PN8); experiment: TSSK3(TSS3LGRM) Takeda global kinase panel
[20] = biological target: Calcium/calmodulin-dependent protein kinase kinase 1 (Homo sapiens, UniProt Q8N5S9); experiment: CAMKK1(CAK1LGT5) Takeda global kinase panel
[21] = biological target: cAMP-dependent protein kinase catalytic subunit gamma (Homo sapiens, UniProt P22612); experiment: PKAgamma(PRCGLGY1) Takeda global kinase panel
[22] = biological target: Tyrosine-protein kinase Fyn (Homo sapiens, UniProt P06241); experiment: Fyn(FYN1LGF5) Takeda global kinase panel
[23] = biological target: Dual specificity mitogen-activated protein kinase kinase 2 (Homo sapiens, UniProt P36507); experiment: MEK2 [MAP2K2(M2K2LGF1)] Takeda global kinase panel
[24] = biological target: Tyrosine-protein kinase receptor TYRO3 (Homo sapiens, UniProt Q06418); experiment: Tyro3 [Sky(TYR3LGY1)] Takeda global kinase panel
[25] = biological target: MAP kinase-activated protein kinase 5 (Homo sapiens, UniProt Q8IW41); experiment: MAPKAPK5(MPK5LGN1) Takeda global kinase panel
[26] = biological target: Cyclin-dependent kinase-like 1 (Homo sapiens, UniProt Q00532); experiment: CDKL1(CDL1LGT1) Takeda global kinase panel

Sequence of 5'-AMP-activated protein kinase catalytic subunit alpha-2 (P54646 whole entry): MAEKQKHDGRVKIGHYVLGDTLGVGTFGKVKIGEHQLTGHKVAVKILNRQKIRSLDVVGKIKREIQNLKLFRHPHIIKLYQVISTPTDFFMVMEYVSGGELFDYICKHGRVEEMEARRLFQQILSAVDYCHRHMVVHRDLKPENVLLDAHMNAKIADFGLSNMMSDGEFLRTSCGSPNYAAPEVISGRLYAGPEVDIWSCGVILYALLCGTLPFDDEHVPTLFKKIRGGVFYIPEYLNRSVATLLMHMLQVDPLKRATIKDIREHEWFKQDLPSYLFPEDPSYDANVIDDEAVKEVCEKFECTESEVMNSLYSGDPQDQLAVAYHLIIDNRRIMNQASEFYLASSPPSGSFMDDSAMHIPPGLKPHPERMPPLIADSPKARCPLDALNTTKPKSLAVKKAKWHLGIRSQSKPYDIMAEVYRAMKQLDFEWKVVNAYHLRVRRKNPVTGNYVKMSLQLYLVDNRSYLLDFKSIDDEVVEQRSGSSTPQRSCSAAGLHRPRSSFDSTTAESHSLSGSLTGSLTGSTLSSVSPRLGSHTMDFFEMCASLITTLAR
Sequence of Acetylcholine receptor subunit alpha (Homo sapiens) (P02708 whole entry): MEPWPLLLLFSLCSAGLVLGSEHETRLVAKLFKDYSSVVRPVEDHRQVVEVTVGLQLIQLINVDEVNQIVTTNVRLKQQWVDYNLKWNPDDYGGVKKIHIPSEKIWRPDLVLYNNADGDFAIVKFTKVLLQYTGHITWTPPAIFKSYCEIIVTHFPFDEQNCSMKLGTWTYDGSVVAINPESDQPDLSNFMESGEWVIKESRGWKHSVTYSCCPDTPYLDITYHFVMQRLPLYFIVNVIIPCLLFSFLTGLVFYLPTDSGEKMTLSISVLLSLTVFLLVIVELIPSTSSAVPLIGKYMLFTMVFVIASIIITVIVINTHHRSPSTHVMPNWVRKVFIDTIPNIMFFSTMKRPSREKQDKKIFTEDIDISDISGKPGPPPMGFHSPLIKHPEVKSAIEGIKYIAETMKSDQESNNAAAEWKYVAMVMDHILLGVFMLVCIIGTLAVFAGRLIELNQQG
Sequence of Testis-specific serine/threonine-protein kinase 3 (Q96PN8 whole entry): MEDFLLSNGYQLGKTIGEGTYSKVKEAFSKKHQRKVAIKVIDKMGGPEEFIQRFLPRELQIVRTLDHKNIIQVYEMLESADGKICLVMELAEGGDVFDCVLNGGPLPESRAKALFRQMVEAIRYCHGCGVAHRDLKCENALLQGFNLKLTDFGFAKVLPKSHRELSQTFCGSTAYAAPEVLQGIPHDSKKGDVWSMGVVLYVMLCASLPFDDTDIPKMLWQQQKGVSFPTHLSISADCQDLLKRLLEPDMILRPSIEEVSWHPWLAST
Sequence of Proto-oncogene tyrosine-protein kinase receptor Ret (P07949 whole entry): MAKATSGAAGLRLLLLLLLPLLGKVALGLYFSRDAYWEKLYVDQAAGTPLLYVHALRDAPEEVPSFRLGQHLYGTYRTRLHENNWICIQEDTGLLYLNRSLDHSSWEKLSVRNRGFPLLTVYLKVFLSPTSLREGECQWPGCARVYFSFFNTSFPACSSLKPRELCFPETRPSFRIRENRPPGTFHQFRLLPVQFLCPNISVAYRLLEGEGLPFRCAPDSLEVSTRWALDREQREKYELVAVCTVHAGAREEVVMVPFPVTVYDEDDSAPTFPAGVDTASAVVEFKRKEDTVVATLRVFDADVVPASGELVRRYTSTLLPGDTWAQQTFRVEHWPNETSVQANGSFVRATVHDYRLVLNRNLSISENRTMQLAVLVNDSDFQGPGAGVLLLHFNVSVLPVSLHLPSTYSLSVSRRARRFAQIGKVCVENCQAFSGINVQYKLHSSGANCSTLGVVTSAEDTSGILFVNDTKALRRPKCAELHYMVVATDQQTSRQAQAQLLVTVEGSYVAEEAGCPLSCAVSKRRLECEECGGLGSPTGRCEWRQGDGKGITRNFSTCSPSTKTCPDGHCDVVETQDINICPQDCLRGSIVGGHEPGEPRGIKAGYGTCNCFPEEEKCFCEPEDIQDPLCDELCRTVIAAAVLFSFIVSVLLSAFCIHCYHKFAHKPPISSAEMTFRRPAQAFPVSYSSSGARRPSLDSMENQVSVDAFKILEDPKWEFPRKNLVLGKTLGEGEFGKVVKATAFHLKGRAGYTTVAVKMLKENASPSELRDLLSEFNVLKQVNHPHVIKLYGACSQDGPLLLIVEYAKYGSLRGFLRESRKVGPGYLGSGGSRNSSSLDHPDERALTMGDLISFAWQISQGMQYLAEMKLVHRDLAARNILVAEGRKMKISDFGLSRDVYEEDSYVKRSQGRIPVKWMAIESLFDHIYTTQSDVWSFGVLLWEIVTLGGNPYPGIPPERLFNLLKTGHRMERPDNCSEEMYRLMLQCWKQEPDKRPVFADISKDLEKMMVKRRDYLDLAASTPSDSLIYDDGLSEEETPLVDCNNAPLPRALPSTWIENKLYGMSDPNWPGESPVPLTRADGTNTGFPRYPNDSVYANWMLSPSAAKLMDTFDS
Sequence of Dual specificity mitogen-activated protein kinase kinase 2 (P36507 whole entry): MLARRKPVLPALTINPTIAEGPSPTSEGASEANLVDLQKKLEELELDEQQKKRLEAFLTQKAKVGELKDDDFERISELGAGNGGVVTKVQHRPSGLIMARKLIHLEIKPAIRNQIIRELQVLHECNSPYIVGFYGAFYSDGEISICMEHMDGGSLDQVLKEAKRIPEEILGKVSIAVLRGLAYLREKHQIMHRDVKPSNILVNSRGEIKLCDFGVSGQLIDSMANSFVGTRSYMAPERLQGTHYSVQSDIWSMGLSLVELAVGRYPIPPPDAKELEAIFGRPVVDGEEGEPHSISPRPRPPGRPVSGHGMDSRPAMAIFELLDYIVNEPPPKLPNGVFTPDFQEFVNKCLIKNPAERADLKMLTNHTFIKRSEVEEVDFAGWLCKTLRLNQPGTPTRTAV
Sequence of Alpha-2A adrenergic receptor (Homo sapiens) (P08913 whole entry): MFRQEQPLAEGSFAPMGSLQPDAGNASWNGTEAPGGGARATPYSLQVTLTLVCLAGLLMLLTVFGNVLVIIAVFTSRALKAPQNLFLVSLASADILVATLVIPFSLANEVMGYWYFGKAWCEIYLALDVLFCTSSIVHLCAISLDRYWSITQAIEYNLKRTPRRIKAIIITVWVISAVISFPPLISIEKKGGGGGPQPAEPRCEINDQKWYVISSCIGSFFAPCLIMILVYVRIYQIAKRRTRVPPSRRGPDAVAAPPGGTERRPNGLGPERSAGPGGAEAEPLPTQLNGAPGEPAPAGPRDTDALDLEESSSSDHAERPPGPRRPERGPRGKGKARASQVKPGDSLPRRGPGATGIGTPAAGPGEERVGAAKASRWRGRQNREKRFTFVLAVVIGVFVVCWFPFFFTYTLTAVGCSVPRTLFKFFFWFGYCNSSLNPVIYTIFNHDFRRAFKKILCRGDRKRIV
Sequence of Tyrosine-protein kinase Fyn (P06241 whole entry): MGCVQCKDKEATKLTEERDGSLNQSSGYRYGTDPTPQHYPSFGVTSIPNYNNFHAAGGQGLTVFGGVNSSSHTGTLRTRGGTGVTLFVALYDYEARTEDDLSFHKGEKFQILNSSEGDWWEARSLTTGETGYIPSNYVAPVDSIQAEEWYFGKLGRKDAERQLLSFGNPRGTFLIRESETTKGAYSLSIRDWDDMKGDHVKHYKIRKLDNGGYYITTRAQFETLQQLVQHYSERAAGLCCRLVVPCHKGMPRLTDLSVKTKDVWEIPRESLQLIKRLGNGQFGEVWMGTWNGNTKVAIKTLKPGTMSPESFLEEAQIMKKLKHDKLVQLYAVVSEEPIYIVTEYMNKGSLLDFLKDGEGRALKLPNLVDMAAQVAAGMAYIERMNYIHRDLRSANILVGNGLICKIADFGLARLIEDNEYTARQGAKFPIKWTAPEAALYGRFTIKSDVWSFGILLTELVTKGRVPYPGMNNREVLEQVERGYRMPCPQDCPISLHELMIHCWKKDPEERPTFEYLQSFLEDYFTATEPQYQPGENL
Sequence of Kappa-type opioid receptor (Homo sapiens) (P41145 whole entry): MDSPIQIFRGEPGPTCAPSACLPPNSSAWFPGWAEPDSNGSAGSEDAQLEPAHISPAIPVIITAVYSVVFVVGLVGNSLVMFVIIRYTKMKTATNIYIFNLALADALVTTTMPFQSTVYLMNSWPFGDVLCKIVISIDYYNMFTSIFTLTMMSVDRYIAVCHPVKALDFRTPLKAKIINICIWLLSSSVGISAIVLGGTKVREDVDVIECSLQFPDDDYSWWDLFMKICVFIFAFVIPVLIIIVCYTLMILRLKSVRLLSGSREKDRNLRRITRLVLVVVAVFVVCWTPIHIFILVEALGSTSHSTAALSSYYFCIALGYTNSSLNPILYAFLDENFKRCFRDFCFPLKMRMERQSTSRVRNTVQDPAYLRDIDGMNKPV
Sequence of 5-hydroxytryptamine receptor 1E (Homo sapiens) (P28566 whole entry): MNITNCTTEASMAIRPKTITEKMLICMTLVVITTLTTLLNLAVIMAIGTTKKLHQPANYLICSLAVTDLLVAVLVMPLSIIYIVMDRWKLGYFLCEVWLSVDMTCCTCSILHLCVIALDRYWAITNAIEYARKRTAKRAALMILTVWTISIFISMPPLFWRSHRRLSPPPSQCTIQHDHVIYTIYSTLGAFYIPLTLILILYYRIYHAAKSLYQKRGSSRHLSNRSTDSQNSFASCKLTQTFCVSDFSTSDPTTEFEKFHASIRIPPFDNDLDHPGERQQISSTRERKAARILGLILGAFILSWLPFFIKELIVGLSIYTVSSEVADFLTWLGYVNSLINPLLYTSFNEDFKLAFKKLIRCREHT
Sequence of Serine/threonine-protein kinase 16 (O75716 whole entry): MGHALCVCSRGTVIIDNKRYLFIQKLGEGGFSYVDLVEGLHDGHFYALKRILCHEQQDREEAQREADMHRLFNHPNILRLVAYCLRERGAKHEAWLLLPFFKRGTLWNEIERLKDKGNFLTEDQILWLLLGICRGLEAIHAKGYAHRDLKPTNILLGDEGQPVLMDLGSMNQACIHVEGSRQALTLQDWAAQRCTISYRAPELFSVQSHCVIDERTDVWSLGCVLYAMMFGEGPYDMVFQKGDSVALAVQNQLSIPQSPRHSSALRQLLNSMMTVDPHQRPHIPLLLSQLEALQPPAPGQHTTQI

**Q.** For `CN1C(=O)[C@@H](N2CCc3cn(Cc4ccccc4)nc3C2=O)COc2ccccc21` [TP-030-1], which inhibition [1] is on record?
**A.** 40.8%

**Q.** What about the inhibition [2] of the same compound?
**A.** 28.8%

**Q.** And the inhibition [3]?
**A.** 10.5%

**Q.** What about the inhibition (Rattus norvegicus) of the same compound?
**A.** 6%

**Q.** What about the inhibition [4] of the same compound?
**A.** -1.55%

**Q.** And the inhibition [5]?
**A.** 10.6%

**Q.** And the inhibition [6]?
**A.** -0.5%

**Q.** What about the inhibition [7] of the same compound?
**A.** -1.17%

**Q.** And the inhibition [8]?
**A.** 14.7%

**Q.** And the inhibition [9]?
**A.** -8%

**Q.** And the IC50 [10]?
**A.** 1000 nM

**Q.** What about the inhibition [11] of the same compound?
**A.** -3.98%

**Q.** What about the inhibition [12] of the same compound?
**A.** 19.1%

**Q.** `CN1C(=O)[C@@H](N2CCc3cn(CC4CCS(=O)(=O)CC4)nc3C2=O)COc2ccccc21` [TP-030n] was tested. Which IC50 (Myosin-IIIa) did it give?
**A.** 1000 nM

**Q.** And the IC50 [13]?
**A.** 1000 nM

**Q.** And the IC50 [14]?
**A.** 1000 nM

**Q.** What about the IC50 [15] of the same compound?
**A.** 1000 nM

**Q.** What about the IC50 (Focal adhesion kinase 1) of the same compound?
**A.** 1000 nM

**Q.** And the IC50 [16]?
**A.** 1000 nM

**Q.** And the IC50 [17]?
**A.** 1000 nM

**Q.** What about the IC50 [18] of the same compound?
**A.** 1000 nM

**Q.** And the IC50 [19]?
**A.** 1000 nM

**Q.** And the IC50 [20]?
**A.** 1000 nM

**Q.** What about the IC50 [21] of the same compound?
**A.** 1000 nM

**Q.** And the IC50 [22]?
**A.** 1000 nM

**Q.** And the IC50 [23]?
**A.** 1000 nM

**Q.** What about the IC50 [24] of the same compound?
**A.** 1000 nM

**Q.** And the IC50 [25]?
**A.** 1000 nM

**Q.** What about the IC50 [26] of the same compound?
**A.** 1000 nM
